Converted amounts (≈) assume the structure as drawn. Where two headings read alike, the source gives them in different places.
Tests used:
[1] = test system: MCF-7 human breast cancer cells; assay: MCF-7 breast cancer cell growth inhibition; assay type: cell-based; conditions: Homo sapiens, MCF7
Method: MCF-7 human breast cancer cells were grown in medium containing 1 μM selenium (Se) for 7 days which increased cellular thioredoxin reductase activity by about 5 fold as previously reported.

[2] = molecular target: T1, human glutathione reductase (Homo sapiens, UniProt P00390); assay: Inhibition of human glutathione reductase (selectivity); assay type: biochemical
T1 sequence (P00390 45-522 limits assumed): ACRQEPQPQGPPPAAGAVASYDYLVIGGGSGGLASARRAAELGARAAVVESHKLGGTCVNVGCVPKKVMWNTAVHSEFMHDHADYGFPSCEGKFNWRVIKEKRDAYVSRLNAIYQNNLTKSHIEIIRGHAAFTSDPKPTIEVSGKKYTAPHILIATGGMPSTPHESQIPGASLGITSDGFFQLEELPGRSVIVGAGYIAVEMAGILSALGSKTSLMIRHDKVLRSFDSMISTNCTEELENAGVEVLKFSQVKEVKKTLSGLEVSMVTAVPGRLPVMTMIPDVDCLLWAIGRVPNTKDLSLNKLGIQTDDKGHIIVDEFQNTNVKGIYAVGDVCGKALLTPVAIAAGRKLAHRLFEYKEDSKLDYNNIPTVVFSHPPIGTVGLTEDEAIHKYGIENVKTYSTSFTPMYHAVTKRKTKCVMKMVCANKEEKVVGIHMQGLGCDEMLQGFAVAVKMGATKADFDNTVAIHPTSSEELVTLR
Method: Based upon the observation that PX-916 was rapidly converted to PX-960 in aqueous solution, the ability of PX-960 to inhibit purified human TR was measured and found to be similar to that of PX-916 (Table 2). PX-916 was a selective inhibitor of human TR compared to two other NADPH dependent reductases with a selectivity of at least 200 for human glutathione reductase and human cytochrome P-450 reductase (Table 3).

[3] = test system: MCF-7 human tumor xenograft TR; assay: Inhibition of tumor thioredoxin reductase in MCF-7 xenografts; assay type: in vivo, mouse; conditions: 25 mg/kg/d i.v. five daily doses, 24 hr after last dose
Method: FIG. 3. Inhibition of cellular thioredoxin reductase by PX-916. MCF-7 human breast cancer cells grown in medium containing 1 μM Se for 7 days were treated with PX-916 and total cellular thioredoxin reductase activity measured. A. Time course of the inhibition of the thioredoxin reductase on exposure to 1 μM PX-916. […] In both cases values are the mean of 3 separate determinations and bars are S.E. P≦0.04 or **p≦0.01. C. Inhibition of MCF-7 tumor thioredoxin reductase by PX-916. MCF-7 human breast cancer xenografts were grown in female scid mice implanted with 17-β-estradiol 60 day slow-release pellets until they were ˜300 mm^3. The mice were administered a single dose of PX-916 of 25 mg/kg i.v. and tumors harvested at various times. Thioredoxin reductase activity was measured in tumor homogenates. Values are the mean of 3 mice at each time point and bars are SE. **p<0.01 compared to pretreatment value.
FIG. 5. Inhibition of tumor HIF-1α, VEGF and thioredoxin reductase by repeated administration of PX-916. Female scid mice were implanted 1d previously with a 90-d 17β-estradiol slow release pellet were inoculated s.c. with 10^7 MCF-7 human breast cancer cells. When the tumors were 300 mm^3, vehicle or 25 mg/kg/d PX-916 was given i.v. for five doses. […]

[4] = test system: SHP-77 human small cell lung cancer; assay: Antitumor activity, SHP-77 small cell lung cancer xenograft; assay type: in vivo, mouse
Method: FIG. 4. Antitumor activity of PX-916. A. Female beige nude mice were inoculated subcutaneously (s.c.) with 10^7 A-673 rhabdomyosarcoma cells. When tumors were 100 mm^3 on day 8 (arrow) dosing was begun with (∘) vehicle alone; (▴) PX-916 10 mg/kg intraperitoneally (i.p.) daily for 4 doses. B. Female scid mice were inoculated s.c. with 10^7 SHP-77 human small cell lung cancer cells. When tumors were 130 mm^3 on day 17 (arrow) dosing was begun with (∘) vehicle alone; (▪) PX-916 10 mg/kg i.v. daily for 8 doses; (▴) PX-916 25 mg/kg i.v. daily for 5 doses. C. Female scid mice implanted 1 day previously with a 17-β-estradiol 60 day slow release pellet were inoculated s.c. with 10^7 MCF-7 human breast cancer cells. When tumors were 180 mm^3 on day 8 (arrow) dosing was begun with (∘) vehicle alone; (⋄) PX-916 27.5 mg/kg i.v. daily for 5 doses. In both A and B values are the mean of 8 mice per group and bars are SE.
A single intravenous (i.v.) dose of PX-916 of 25 mg/kg inhibited MCF-7 human tumor xenograft TR up to about 60% at 24 hr and the inhibition was maintained for at least 48 hr (FIG. 3C). […] In this study 3 of eight nice had no histologically detectable tumor when the study was terminated on day 42.

Aqueous solubility = assay type: physicochemical
[5] = pH dependent stability in water / 0.1M sodium phosphate buffer; assay type: physicochemical
Method: PX-916 was stable as a stock solution in ethanol at room temperature with a half life of >5 days. […] Therefore, for in vitro studies PX-916 was used as a stock solution in ethanol, and for in vivo studies made fresh in pH 4.0 buffer vehicle.
Further palmarumycin analogs were synthesized and tested. The following analogs were synthesized: eee269-II, eee86-III, eee263-II and eee273-II. The stability of the analogs was measured in various solutions.

[6] = Stability in fresh mouse plasma at room temperature; assay type: in vitro ADME
Method: (§1) Two metabolite peaks could be seen at 5 minutes, but were undetectable by 30 minutes.

[7] = Plasma levels in mice after i.v. administration; assay type: in vivo, mouse; design: dose or concentration left out as unconfirmed; conditions: PX-916 i.v. to mice, 5 minutes after administration
Method: as §1

[8] = 10 mg/kg i.v. daily for 8 doses
[9] = 25 mg/kg i.v. daily for 5 doses

In the case of NCC(=O)Oc1ccc2c3c(cccc13)OC1(C=CC(=O)c3c(O)cccc31)O2 (centres unmarked) [PX-916, O-glycyl naphthoquinone spiroketal], the IC50 ([1]; Table 1, read-out: MCF-7 growth inhibition IC50) is reported as 3.1 µM, the IC50 ([1]; Table 2, read-out: Inhibition of MCF-7 breast cancer cell growth IC50) is reported as 3.1 µM and the IC50 ([1]; read-out: IC50 MCF-7 cell growth) is reported as 3.1 µM. For the same molecule, the “concentration increase needed to inhibit glutathione reductase” value [2] was “greater than 100 fold”, the “selectivity for human TR vs human glutathione reductase” value [2] was “at least 200” and the “Selectivity for TR vs glutathione reductase” value ([2]; Table 3) was greater than 200. The IC50 ([2]; Table 3, read-out: Inhibition IC50, glutathione reductase (red blood cell)) was greater than 50 µM, the “decrease of tumor thioredoxin reductase activity” value [3] was 75% and the tumor growth inhibition [4, 8] was 39%. For the same molecule, the tumor growth rate [4, 8] was “about 91±24 mm^3/day”, the “mice with no histologically detectable tumor on day 42” value [4, 9] was 3 of eight and the tumor growth inhibition [4, 9] was 82%. For the same molecule, the tumor growth rate ([4]; 25 mg/kg i.v. daily for 5 doses, 5 days after end of dosing) was 27 mm^3/day, the tumor regressions ([4]; in words) was “complete tumor regressions were seen in some mice” and the “apparent maximum solubility in water” value (Aqueous solubility) was “around 10 mg”. For the same molecule, the “improvement of aqueous solubility vs PX-960” value (Aqueous solubility) was 1-2 orders of magnitude, the solubility (Aqueous solubility; 20% β-cyclodextrin, aqueous with cosolvent or surfactant or cyclodextrin, read-out: solubility with 20% β-cyclodextrin) was 2000 µg/mL (≈ 5.14 mM) and the solubility (Aqueous solubility; water, read-out: water solubility) was 700 µg/mL (≈ 1.8 mM). For the same molecule, the half-life ([5]; 0.1M sodium phosphate buffer, pH 4.0, read-out: half life (converted)) was 37 h, the half-life ([5]; 0.1M sodium phosphate buffer, pH 7.0, read-out: half life (converted)) was 1 h and the half-life ([5]; 0.1M sodium phosphate buffer, pH 10.0, read-out: half life (converted)) was less than 1 h. For the same molecule, the “half life of conversion to PX-960” value ([5]; physiological pH) was 1 h, the half-life ([5]; water, pH 4, room temperature, pH4, read-out: t1/2 in water (converted)) was 37 h and the half-life ([5]; water, pH 7 and above, read-out: t1/2 in water (converted)) was less than 1 h. The half-life [6] was less than 2 min and the “detection of PX-916 in plasma” value [7] was “could not be detected”.

— patent US20120226031A1, “PALMARUMYCIN BASED INHIBITORS OF THIOREDOXIN AND METHODS OF USING SAME” (ARIZONA BOARD OF REGENTS, ACTING ON BEHALF OF THE …, priority 2005, published 2012)
